“And” between values parts separate entries of the source, which are not always exact repeats. Equal entries are not always repeated. Where two headings read alike, the source gives them in different places.
Assays:
[1] = molecular target: human α-thrombin (Homo sapiens, UniProt P00734); experiment: Protease inhibition, Ki for human α-thrombin (fluorogenic substrate Z-Gly-Gly-Arg-AMC); format: biochemical; conditions: for slope normalized to DMSO, human alpha thrombin inhibition / Human alpha thrombin inhibition, slope normalized to DMSO: replicates R1-R3
How it was run: (§1)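 Inhibition was measured as AMC fluorescence from 50 μM substrate, monitored for 30 min at 25 °C, relative to a peptide-free control. Human and rat enzymes were present at 2 nM and 3 nM final, respectively, in 50 mM Tris-HCl pH 7.4, 150 mM NaCl, 10 mM MgCl2, 1 mM CaCl2. Ki derives from fitted IC50 via Cheng–Prusoff.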

[2] = molecular target: T1, rat α-thrombin (Rattus norvegicus, UniProt P18292); experiment: Protease inhibition, Ki for rat α-thrombin (fluorogenic substrate Z-Gly-Gly-Arg-AMC); format: biochemical; conditions: replicates R1-R3
T1 construct: rat α-thrombin (Molecular Innovations) were used at final concentrations of 2 nM and 3 nM; purchased Molecular Innovations
How it was run: as §1

## O=C1C[C@H]2CCCN2C(=O)[C@H](Cc2ccccc2)NC(=O)[C@@H](NC(=O)c2ccc(Cl)s2)CCC=CCCCCN1 [peptide 43]
[1]; peptide 1.00E+02 uM
  slope normalized to DMSO, human alpha thrombin inhibition: 10.6 and 8.4 (2×)
[1]; peptide 1.19E-05 uM
  slope normalized to DMSO, human alpha thrombin inhibition: 106.5 and 81.0 and 107.9
[1]; peptide 1.22E-02 uM
  slope normalized to DMSO, human alpha thrombin inhibition: 62.0 and 85.6 and 70.0
[1]; peptide 1.25E+01 uM
  slope normalized to DMSO, human alpha thrombin inhibition: 12.3 and 9.9 and 11.8
[1]; peptide 1.53E-03 uM
  slope normalized to DMSO, human alpha thrombin inhibition: 95.1 and 99.7 and 102.7
[1]; peptide 1.56E+00 uM
  slope normalized to DMSO, human alpha thrombin inhibition: 18.3 and 16.9 and 22.5
[1]; peptide 1.91E-04 uM
  slope normalized to DMSO, human alpha thrombin inhibition: 119.9 and 101.0 and 100.8
[1]; peptide 1.95E-01 uM
  slope normalized to DMSO, human alpha thrombin inhibition: 42.7 and 40.6 and 41.3
[1]; peptide 2.38E-05 uM
  slope normalized to DMSO, human alpha thrombin inhibition: 106.9 and 97.9 and 102.5
[1]; peptide 2.44E-02 uM
  slope normalized to DMSO, human alpha thrombin inhibition: 46.0 and 65.3 and 70.3
[1]; peptide 2.50E+01 uM
  slope normalized to DMSO, human alpha thrombin inhibition: 11.7 and 11.0 and 8.9
[1]; peptide 3.05E-03 uM
  slope normalized to DMSO, human alpha thrombin inhibition: 106.1 and 101.5 and 67.8
[1]; peptide 3.12E+00 uM
  slope normalized to DMSO, human alpha thrombin inhibition: 3.8 and 18.2 and 18.8
[1]; peptide 3.81E-04 uM
  slope normalized to DMSO, human alpha thrombin inhibition: 102.1 and 100.1 and 93.5
[1]; peptide 3.91E-01 uM
  slope normalized to DMSO, human alpha thrombin inhibition: 14.9 and 22.0 and 10.5
[1]; peptide 4.77E-05 uM
  slope normalized to DMSO, human alpha thrombin inhibition: 101.9 and 97.6 and 92.9
[1]; peptide 4.88E-02 uM
  slope normalized to DMSO, human alpha thrombin inhibition: 73.8 and 55.8 and 60.0
[1]; peptide 5.00E+01 uM
  slope normalized to DMSO, human alpha thrombin inhibition: 9.3 and 5.3
[1]; peptide 6.10E-03 uM
  slope normalized to DMSO, human alpha thrombin inhibition: 98.4 and 93.3 and 99.0
[1]; peptide 6.25E+00 uM
  slope normalized to DMSO, human alpha thrombin inhibition: 13.3 and 15.1 and 10.3
[1]; peptide 7.63E-04 uM
  slope normalized to DMSO, human alpha thrombin inhibition: 80.8 and 91.3 and 104.9
[1]; peptide 7.81E-01 uM
  slope normalized to DMSO, human alpha thrombin inhibition: 21.2 and 22.0 (2×)
[1]; peptide 9.54E-05 uM
  slope normalized to DMSO, human alpha thrombin inhibition: 101.3 and 101.9 and 107.5
[1]; peptide 9.77E-02 uM
  slope normalized to DMSO, human alpha thrombin inhibition: 65.8 and 56.8 and 59.4
[1]; peptide concentration 1.00E+02 uM
  Human alpha thrombin inhibition, slope normalized to DMSO: 10.6 and 8.4 (2×)
[1]; peptide concentration 1.19E-05 uM
  Human alpha thrombin inhibition, slope normalized to DMSO: 106.5 and 81.0 and 107.9
[1]; peptide concentration 1.22E-02 uM
  Human alpha thrombin inhibition, slope normalized to DMSO: 62.0 and 85.6 and 70.0
[1]; peptide concentration 1.25E+01 uM
  Human alpha thrombin inhibition, slope normalized to DMSO: 12.3 and 9.9 and 11.8
[1]; peptide concentration 1.53E-03 uM
  Human alpha thrombin inhibition, slope normalized to DMSO: 95.1 and 99.7 and 102.7
[1]; peptide concentration 1.56E+00 uM
  Human alpha thrombin inhibition, slope normalized to DMSO: 18.3 and 16.9 and 22.5
[1]; peptide concentration 1.91E-04 uM
  Human alpha thrombin inhibition, slope normalized to DMSO: 119.9 and 101.0 and 100.8
[1]; peptide concentration 1.95E-01 uM
  Human alpha thrombin inhibition, slope normalized to DMSO: 42.7 and 40.6 and 41.3
[1]; peptide concentration 2.38E-05 uM
  Human alpha thrombin inhibition, slope normalized to DMSO: 106.9 and 97.9 and 102.5
[1]; peptide concentration 2.44E-02 uM
  Human alpha thrombin inhibition, slope normalized to DMSO: 46.0 and 65.3 and 70.3
[1]; peptide concentration 2.50E+01 uM
  Human alpha thrombin inhibition, slope normalized to DMSO: 11.7 and 11.0 and 8.9
[1]; peptide concentration 3.05E-03 uM
  Human alpha thrombin inhibition, slope normalized to DMSO: 106.1 and 101.5 and 67.8
[1]; peptide concentration 3.12E+00 uM
  Human alpha thrombin inhibition, slope normalized to DMSO: 3.8 and 18.2 and 18.8
[1]; peptide concentration 3.81E-04 uM
  Human alpha thrombin inhibition, slope normalized to DMSO: 102.1 and 100.1 and 93.5
[1]; peptide concentration 3.91E-01 uM
  Human alpha thrombin inhibition, slope normalized to DMSO: 14.9 and 22.0 and 10.5
[1]; peptide concentration 4.77E-05 uM
  Human alpha thrombin inhibition, slope normalized to DMSO: 101.9 and 97.6 and 92.9
[1]; peptide concentration 4.88E-02 uM
  Human alpha thrombin inhibition, slope normalized to DMSO: 73.8 and 55.8 and 60.0
[1]; peptide concentration 5.00E+01 uM
  Human alpha thrombin inhibition, slope normalized to DMSO: 9.3 and 5.3
[1]; peptide concentration 6.10E-03 uM
  Human alpha thrombin inhibition, slope normalized to DMSO: 98.4 and 93.3 and 99.0
[1]; peptide concentration 6.25E+00 uM
  Human alpha thrombin inhibition, slope normalized to DMSO: 13.3 and 15.1 and 10.3
[1]; peptide concentration 7.63E-04 uM
  Human alpha thrombin inhibition, slope normalized to DMSO: 80.8 and 91.3 and 104.9
[1]; peptide concentration 7.81E-01 uM
  Human alpha thrombin inhibition, slope normalized to DMSO: 21.2 and 22.0 (2×)
[1]; peptide concentration 9.54E-05 uM
  Human alpha thrombin inhibition, slope normalized to DMSO: 101.3 and 101.9 and 107.5
[1]; peptide concentration 9.77E-02 uM
  Human alpha thrombin inhibition, slope normalized to DMSO: 65.8 and 56.8 and 59.4
[1]; purified peptide, mean and s.d. of three measurements, read-out: Ki human α-thrombin
  Ki: 50 ± 6 nM
[1]; single replicates R1-R3, read-out: Human alpha thrombin inhibition, IC50
  IC50: 56.4 nM and 74.7 nM and 63.5 nM
[1]; single replicates R1-R3, read-out: Human alpha thrombin inhibition, Ki
  Ki: 43.5 nM and 57.6 nM and 48.9 nM
[2]; peptide 1.00E+02 uM
  slope normalized to DMSO, rat alpha thrombin inhibition: 5.4 and 5.2 and 4.3
[2]; peptide 1.19E-05 uM
  slope normalized to DMSO, rat alpha thrombin inhibition: 102.6 and 102.2 and 91.2
[2]; peptide 1.22E-02 uM
  slope normalized to DMSO, rat alpha thrombin inhibition: 54.9 and 61.5 and 61.2
[2]; peptide 1.25E+01 uM
  slope normalized to DMSO, rat alpha thrombin inhibition: 7.2 and 11.2 and 5.0
[2]; peptide 1.53E-03 uM
  slope normalized to DMSO, rat alpha thrombin inhibition: 90.8 and 92.4 and 84.4
[2]; peptide 1.56E+00 uM
  slope normalized to DMSO, rat alpha thrombin inhibition: 8.6 and 7.9 and 7.3
[2]; peptide 1.91E-04 uM
  slope normalized to DMSO, rat alpha thrombin inhibition: 101.3 and 100.0 and 99.0
[2]; peptide 1.95E-01 uM
  slope normalized to DMSO, rat alpha thrombin inhibition: 18.2 and 17.7 and 18.1
[2]; peptide 2.38E-05 uM
  slope normalized to DMSO, rat alpha thrombin inhibition: 104.9 and 102.6 and 101.9
[2]; peptide 2.44E-02 uM
  slope normalized to DMSO, rat alpha thrombin inhibition: 50.2 and 48.9 and 44.8
